PMC8490825 (Frontiers in Molecular Biosciences, 2021)
Like-named read-outs stand apart in the source and are kept apart here. Where a SMILES comes first, the peptide text is derived from it. Bridges are numbered along the chain shown (N, C = ends).

Tests used:
[1] = target: hNaV1.1 (Homo sapiens, UniProt P35498); experiment: cell-based; format: cell-based
[2] = target: hNaV1.7 (Homo sapiens, UniProt Q15858); experiment: cell-based; format: cell-based
[3] = target: hNaV1.6 (Homo sapiens, UniProt Q9UQD0); experiment: cell-based; conditions: N = 4; SEM; read-out: IC50 ± SEM, NaV1.6
[4] = target: hNaV1.4 (Homo sapiens, UniProt P35499); experiment: cell-based; format: cell-based
Chain of hNaV1.4 (P35499 whole entry, looked up): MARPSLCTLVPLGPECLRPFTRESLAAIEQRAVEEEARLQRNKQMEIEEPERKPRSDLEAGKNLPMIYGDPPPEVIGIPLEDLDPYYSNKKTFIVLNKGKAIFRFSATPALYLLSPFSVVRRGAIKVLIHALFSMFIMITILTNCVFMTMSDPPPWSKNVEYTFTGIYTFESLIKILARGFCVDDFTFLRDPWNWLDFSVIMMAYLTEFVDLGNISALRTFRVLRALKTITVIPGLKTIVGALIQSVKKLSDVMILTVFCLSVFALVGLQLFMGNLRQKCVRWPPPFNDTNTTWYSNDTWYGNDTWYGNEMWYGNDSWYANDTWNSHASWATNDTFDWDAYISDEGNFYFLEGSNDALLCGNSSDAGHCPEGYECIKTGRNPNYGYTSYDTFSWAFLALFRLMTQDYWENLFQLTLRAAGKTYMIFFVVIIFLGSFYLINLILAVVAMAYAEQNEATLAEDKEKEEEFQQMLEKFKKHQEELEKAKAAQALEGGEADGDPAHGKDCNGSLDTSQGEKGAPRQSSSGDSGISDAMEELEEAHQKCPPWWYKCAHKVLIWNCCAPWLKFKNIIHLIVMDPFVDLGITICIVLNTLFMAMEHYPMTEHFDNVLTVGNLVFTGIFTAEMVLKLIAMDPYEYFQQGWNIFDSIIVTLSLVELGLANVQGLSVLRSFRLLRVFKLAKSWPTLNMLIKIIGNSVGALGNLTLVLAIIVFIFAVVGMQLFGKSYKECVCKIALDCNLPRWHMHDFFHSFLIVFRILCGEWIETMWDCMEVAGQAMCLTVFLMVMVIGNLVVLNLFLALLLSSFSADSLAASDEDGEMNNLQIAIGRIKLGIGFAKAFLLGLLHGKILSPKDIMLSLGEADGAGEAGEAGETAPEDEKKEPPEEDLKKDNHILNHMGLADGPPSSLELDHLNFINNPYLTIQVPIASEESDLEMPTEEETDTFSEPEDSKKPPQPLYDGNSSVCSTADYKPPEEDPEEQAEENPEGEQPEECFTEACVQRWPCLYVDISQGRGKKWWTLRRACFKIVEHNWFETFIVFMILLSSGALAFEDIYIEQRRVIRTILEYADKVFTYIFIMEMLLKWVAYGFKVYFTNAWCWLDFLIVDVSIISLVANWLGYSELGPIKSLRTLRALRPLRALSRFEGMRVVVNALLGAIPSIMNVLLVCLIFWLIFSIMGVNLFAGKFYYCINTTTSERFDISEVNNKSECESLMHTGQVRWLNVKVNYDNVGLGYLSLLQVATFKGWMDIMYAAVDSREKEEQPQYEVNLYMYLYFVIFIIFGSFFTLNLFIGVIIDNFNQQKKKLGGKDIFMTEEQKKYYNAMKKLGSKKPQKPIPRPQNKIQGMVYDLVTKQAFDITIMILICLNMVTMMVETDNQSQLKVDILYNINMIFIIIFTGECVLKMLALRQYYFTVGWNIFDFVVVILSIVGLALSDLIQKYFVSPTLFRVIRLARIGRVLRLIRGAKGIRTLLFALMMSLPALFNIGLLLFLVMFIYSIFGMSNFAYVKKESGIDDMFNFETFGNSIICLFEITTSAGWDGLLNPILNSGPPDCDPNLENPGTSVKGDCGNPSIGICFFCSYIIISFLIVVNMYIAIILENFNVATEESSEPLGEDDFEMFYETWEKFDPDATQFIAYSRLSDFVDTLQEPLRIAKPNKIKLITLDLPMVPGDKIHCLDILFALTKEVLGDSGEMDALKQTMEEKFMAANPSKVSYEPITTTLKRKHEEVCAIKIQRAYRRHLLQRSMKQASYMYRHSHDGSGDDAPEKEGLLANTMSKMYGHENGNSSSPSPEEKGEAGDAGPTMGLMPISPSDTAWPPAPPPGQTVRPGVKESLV

[5] = target: hNaV1.3 (Homo sapiens, UniProt Q9NY46); experiment: cell-based; conditions: N = 3-4; SEM; read-out: IC50 ± SEM, NaV1.3
[6] = target: hNaV1.2 (Homo sapiens, UniProt Q99250); experiment: cell-based; conditions: N = 3-6; SEM; read-out: IC50 ± SEM, NaV1.2
[7] = target: hNaV1.5 (Homo sapiens, UniProt Q14524); experiment: cell-based; format: cell-based
[8] = system: endogenous K+ currents from non-transfected HEK293 cells; format: cell-based
[9] = system: rKV2.1/hNaV1.1 chimera containing the paddles S3–S4 from DII from NaV1.1; format: cell-based

Chain of hNaV1.7 (Q15858 whole entry, looked up): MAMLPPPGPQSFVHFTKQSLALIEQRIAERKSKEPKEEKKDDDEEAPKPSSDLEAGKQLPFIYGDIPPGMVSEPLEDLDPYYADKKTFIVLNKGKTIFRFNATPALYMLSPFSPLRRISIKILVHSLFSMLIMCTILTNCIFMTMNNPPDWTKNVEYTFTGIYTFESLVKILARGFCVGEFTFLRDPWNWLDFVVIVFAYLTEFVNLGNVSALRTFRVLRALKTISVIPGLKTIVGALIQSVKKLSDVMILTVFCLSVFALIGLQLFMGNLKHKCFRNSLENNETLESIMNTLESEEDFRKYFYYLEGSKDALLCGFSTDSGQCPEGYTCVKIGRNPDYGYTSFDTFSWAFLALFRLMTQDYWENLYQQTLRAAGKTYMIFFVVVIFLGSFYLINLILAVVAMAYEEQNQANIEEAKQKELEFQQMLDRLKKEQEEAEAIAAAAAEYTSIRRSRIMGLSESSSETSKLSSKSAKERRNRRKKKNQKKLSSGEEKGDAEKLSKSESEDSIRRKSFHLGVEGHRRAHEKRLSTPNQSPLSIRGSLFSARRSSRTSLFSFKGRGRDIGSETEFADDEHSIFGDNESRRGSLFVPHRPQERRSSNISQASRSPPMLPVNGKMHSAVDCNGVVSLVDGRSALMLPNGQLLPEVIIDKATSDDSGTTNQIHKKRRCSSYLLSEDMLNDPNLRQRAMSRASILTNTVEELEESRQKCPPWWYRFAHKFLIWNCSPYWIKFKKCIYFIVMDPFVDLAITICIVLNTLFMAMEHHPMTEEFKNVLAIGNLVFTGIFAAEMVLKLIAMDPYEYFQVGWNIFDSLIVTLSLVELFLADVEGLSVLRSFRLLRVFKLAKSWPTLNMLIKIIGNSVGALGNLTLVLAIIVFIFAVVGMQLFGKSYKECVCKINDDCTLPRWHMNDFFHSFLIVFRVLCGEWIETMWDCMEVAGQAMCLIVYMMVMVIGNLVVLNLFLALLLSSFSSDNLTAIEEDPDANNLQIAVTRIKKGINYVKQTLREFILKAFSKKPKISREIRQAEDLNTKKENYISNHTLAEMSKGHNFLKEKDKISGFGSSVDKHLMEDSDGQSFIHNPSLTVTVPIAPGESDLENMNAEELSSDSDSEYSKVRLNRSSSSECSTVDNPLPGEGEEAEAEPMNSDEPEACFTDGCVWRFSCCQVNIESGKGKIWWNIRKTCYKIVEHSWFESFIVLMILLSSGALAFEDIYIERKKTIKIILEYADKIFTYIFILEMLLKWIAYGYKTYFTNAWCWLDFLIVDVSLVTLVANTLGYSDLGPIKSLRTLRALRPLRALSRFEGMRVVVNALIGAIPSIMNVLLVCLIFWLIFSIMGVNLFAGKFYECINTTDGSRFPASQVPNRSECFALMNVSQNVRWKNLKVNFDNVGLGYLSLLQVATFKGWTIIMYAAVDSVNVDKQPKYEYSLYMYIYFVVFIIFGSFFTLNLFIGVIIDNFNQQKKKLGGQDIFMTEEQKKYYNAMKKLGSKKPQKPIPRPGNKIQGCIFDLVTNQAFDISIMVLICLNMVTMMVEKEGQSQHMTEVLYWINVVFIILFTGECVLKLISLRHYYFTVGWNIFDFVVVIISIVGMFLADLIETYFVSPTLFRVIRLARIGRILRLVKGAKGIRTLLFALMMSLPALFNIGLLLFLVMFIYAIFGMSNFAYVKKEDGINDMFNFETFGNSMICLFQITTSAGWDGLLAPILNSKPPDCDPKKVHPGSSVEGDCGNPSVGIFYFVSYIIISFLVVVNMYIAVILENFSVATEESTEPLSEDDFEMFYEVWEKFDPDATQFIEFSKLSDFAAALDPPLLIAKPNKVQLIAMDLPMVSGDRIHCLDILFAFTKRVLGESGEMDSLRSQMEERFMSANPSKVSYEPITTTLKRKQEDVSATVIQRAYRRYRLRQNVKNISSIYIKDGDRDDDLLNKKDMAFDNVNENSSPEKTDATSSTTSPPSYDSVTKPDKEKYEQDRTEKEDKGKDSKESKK

## CSCC[C@@H]1NC(=O)CNC(=O)[C@H](CC(C)C)NC(=O)[C@@H](NC(=O)[C@H](CC(=O)O)NC(=O)[C@H](CC(=O)O)NC(=O)CN)CSSC[C@@H]2NC(=O)[C@@H]3CSSC[C@@H](C(=O)N[C@@H](CCCCN)C(=O)N[C@@H](Cc4ccc(O)cc4)C(=O)N[C@@H](C)C(=O)N[C@@H](CC(C)C)C(=O)N[C@@H](Cc4c[nH]c5ccccc45)C(=O)O)NC(=O)[C@H](Cc4c[nH]c5ccccc45)NC(=O)[C@H](CCC(N)=O)NC(=O)[C@H](CC(=O)O)NC(=O)[C@H](CCCCN)NC(=O)[C@H](CCCNC(=N)N)NC(=O)[C@H](CO)NC(=O)[C@H](CSSC[C@H](NC(=O)[C@H](CO)NC(=O)[C@H](CO)NC(=O)[C@H](Cc4ccccc4)NC1=O)C(=O)N[C@@H](CC(=O)O)C(=O)N1CCC[C@H]1C(=O)N[C@@H](CC(N)=O)C(=O)N[C@@H](CC(N)=O)C(=O)N[C@@H](CC(=O)O)C(=O)N[C@@H](CCCCN)C(=O)N3)NC(=O)[C@H](CCCCN)NC(=O)[C@H](CCCNC(=N)N)NC(=O)[C@H](CC(N)=O)NC(=O)[C@@H]1CCCN1C2=O [Peptide Q33A] (H-GDDCLGMFSSCDPNNDKCCPNRKCSRKDQWCKYALW-OH; disulfide 4-19, 11-24, 18-31)
[1]
  IC50: 163 nM
[2]
  IC50: 99 nM

## CSCC[C@@H]1NC(=O)CNC(=O)[C@H](CC(C)C)NC(=O)[C@@H](NC(=O)[C@H](CC(=O)O)NC(=O)[C@H](CC(=O)O)NC(=O)CN)CSSC[C@@H]2NC(=O)[C@@H]3CSSC[C@@H](C(=O)N[C@@H](CCCCN)C(=O)N[C@@H](Cc4ccc(O)cc4)C(=O)N[C@@H](CCC(N)=O)C(=O)N[C@@H](CC(C)C)C(=O)N[C@@H](Cc4c[nH]c5ccccc45)C(=O)O)NC(=O)[C@H](Cc4c[nH]c5ccccc45)NC(=O)[C@H](CCC(N)=O)NC(=O)[C@H](CC(=O)O)NC(=O)[C@H](CCCCN)NC(=O)[C@H](CCCNC(=N)N)NC(=O)[C@H](C)NC(=O)[C@H](CSSC[C@H](NC(=O)[C@H](CO)NC(=O)[C@H](CO)NC(=O)[C@H](Cc4ccccc4)NC1=O)C(=O)N[C@@H](CC(=O)O)C(=O)N1CCC[C@H]1C(=O)N[C@@H](CC(N)=O)C(=O)N[C@@H](CC(N)=O)C(=O)N[C@@H](CC(=O)O)C(=O)N[C@@H](CCCCN)C(=O)N3)NC(=O)[C@H](CCCCN)NC(=O)[C@H](CCCNC(=N)N)NC(=O)[C@H](CC(N)=O)NC(=O)[C@@H]1CCCN1C2=O [Peptide S24A] (H-GDDCLGMFSSCDPNNDKCCPNRKCARKDQWCKYQLW-OH; disulfide 4-19, 11-24, 18-31)
[1]
  IC50: > 1000 nM
[2]
  IC50: 920 nM

## CSCC[C@@H]1NC(=O)CNC(=O)[C@H](CC(C)C)NC(=O)[C@@H](NC(=O)[C@H](CC(=O)O)NC(=O)[C@H](CC(=O)O)NC(=O)CN)CSSC[C@@H]2NC(=O)[C@@H]3CSSC[C@@H](C(=O)N[C@@H](CCCCN)C(=O)N[C@@H](Cc4ccc(O)cc4)C(=O)N[C@@H](CCC(N)=O)C(=O)N[C@@H](CC(C)C)C(=O)N[C@@H](C)C(=O)O)NC(=O)[C@H](Cc4c[nH]c5ccccc45)NC(=O)[C@H](CCC(N)=O)NC(=O)[C@H](CC(=O)O)NC(=O)[C@H](CCCCN)NC(=O)[C@H](CCCNC(=N)N)NC(=O)[C@H](CO)NC(=O)[C@H](CSSC[C@H](NC(=O)[C@H](CO)NC(=O)[C@H](CO)NC(=O)[C@H](Cc4ccccc4)NC1=O)C(=O)N[C@@H](CC(=O)O)C(=O)N1CCC[C@H]1C(=O)N[C@@H](CC(N)=O)C(=O)N[C@@H](CC(N)=O)C(=O)N[C@@H](CC(=O)O)C(=O)N[C@@H](CCCCN)C(=O)N3)NC(=O)[C@H](CCCCN)NC(=O)[C@H](CCCNC(=N)N)NC(=O)[C@H](CC(N)=O)NC(=O)[C@@H]1CCCN1C2=O [Peptide W35A] (H-GDDCLGMFSSCDPNNDKCCPNRKCSRKDQWCKYQLA-OH; disulfide 4-19, 11-24, 18-31)
[1]
  IC50: > 1000 nM
[2]
  IC50: > 1000 nM

## CSCC[C@@H]1NC(=O)CNC(=O)[C@H](CC(C)C)NC(=O)[C@@H](NC(=O)[C@H](CC(=O)O)NC(=O)[C@H](CC(=O)O)NC(=O)CN)CSSC[C@@H]2NC(=O)[C@@H]3CSSC[C@@H](C(=O)N[C@@H](CCCCN)C(=O)N[C@@H](C)C(=O)N[C@@H](CCC(N)=O)C(=O)N[C@@H](CC(C)C)C(=O)N[C@@H](Cc4c[nH]c5ccccc45)C(=O)O)NC(=O)[C@H](Cc4c[nH]c5ccccc45)NC(=O)[C@H](CCC(N)=O)NC(=O)[C@H](CC(=O)O)NC(=O)[C@H](CCCCN)NC(=O)[C@H](CCCNC(=N)N)NC(=O)[C@H](CO)NC(=O)[C@H](CSSC[C@H](NC(=O)[C@H](CO)NC(=O)[C@H](CO)NC(=O)[C@H](Cc4ccccc4)NC1=O)C(=O)N[C@@H](CC(=O)O)C(=O)N1CCC[C@H]1C(=O)N[C@@H](CC(N)=O)C(=O)N[C@@H](CC(N)=O)C(=O)N[C@@H](CC(=O)O)C(=O)N[C@@H](CCCCN)C(=O)N3)NC(=O)[C@H](CCCCN)NC(=O)[C@H](CCCNC(=N)N)NC(=O)[C@H](CC(N)=O)NC(=O)[C@@H]1CCCN1C2=O [Peptide Y32A] (H-GDDCLGMFSSCDPNNDKCCPNRKCSRKDQWCKAQLW-OH; disulfide 4-19, 11-24, 18-31)
[1]
  IC50: > 1000 nM
[2]
  IC50: > 1000 nM

## CC[C@H](C)[C@@H]1NC(=O)CNC(=O)[C@H](CC(C)C)NC(=O)[C@@H](NC(=O)CNC(=O)CN)CSSC[C@@H]2NC(=O)[C@@H]3CSSC[C@@H](C(=O)N[C@@H](CCCCN)C(=O)N[C@@H](Cc4c[nH]c5ccccc45)C(=O)N[C@@H](CCCCN)C(=O)N[C@@H](CC(C)C)C(=O)N[C@@H](Cc4c[nH]c5ccccc45)C(=O)O)NC(=O)[C@H](Cc4c[nH]c5ccccc45)NC(=O)[C@H](CCCNC(=N)N)NC(=O)[C@H](Cc4c[nH]cn4)NC(=O)[C@H](CCCCN)NC(=O)[C@H](CCCCN)NC(=O)[C@H](CO)NC(=O)[C@H](CSSC[C@H](NC(=O)[C@H](CO)NC(=O)[C@H](CO)NC(=O)[C@H](C)NC1=O)C(=O)N[C@@H](CC(=O)O)C(=O)N1CCC[C@H]1C(=O)N[C@@H](CCC(=O)O)C(=O)N[C@@H](CC(N)=O)C(=O)N[C@@H](CC(=O)O)C(=O)N[C@@H](CCCCN)C(=O)N3)NC(=O)[C@H](C(C)C)NC(=O)[C@H](CCCNC(=N)N)NC(=O)[C@H](CC(N)=O)NC(=O)[C@H](Cc1ccc(O)cc1)NC2=O [Tap1a-OPT2] (H-GGCLGIASSCDPENDKCCYNRVCSKKHRWCKWKLW-OH; disulfide 3-18, 10-23, 17-30)
[3]
  IC50: 75 ± 11 nM
[1]; N = 4-5, SEM, read-out: IC50 ± SEM, NaV1.1
  IC50: 54 ± 9 nM
[4]
  inhibition of NaV1.4, in words: did not significantly inhibit
  loss of activity for NaV1.4 compared to Tap1a-OPT1: at least 10 fold
[4]; N = 4, read-out: IC50 ± SEM, NaV1.4
  IC50: > 1000 nM
[5]
  IC50: 96 ± 9 nM
[2]
  loss of activity for NaV1.7 compared to Tap1a-OPT1: 2 fold
[2]; N = 3-4, SEM, read-out: IC50 ± SEM, NaV1.7
  IC50: 35 ± 2 nM
[6]
  IC50: 43 ± 5 nM
[7]
  inhibition of NaV1.5, in words: did not significantly inhibit
[7]; N = 3-4, read-out: IC50 ± SEM, NaV1.5
  IC50: > 1000 nM

## COC(=O)C1=C(C)NC(C)=C(C(=O)OC)C1c1ccccc1[N+](=O)[O-] [nifedipine]
[8]
  effect on endogenous potassium currents of non-transfected HEK293 cells: inhibited
[9]
  effect on potassium currents of cells transfected with the chimera KV2.1/NaV1.1 VSDII: sensitive
